Assay results taken from patent publication US5444056A, “Aminoalkoxyphenyl derivatives, process for their preparation and compositions containing them” (Sanofi, priority 1989, dated 1995).
Counter-ions that a name gives are not always drawn.

Legend:
[1] = test system: contractile response to potassium-induced depolarization on isolated rat aorta; experiment: Calcium inhibitory properties: antagonism of contractile response to potassium-induced depolarization on isolated rat aorta; parameters: species or system rat (male Wistar); details: percent of maximal contraction before incubation, 60 min
Text: It is well established that the depolarization of a smooth muscle membrane by potassium makes the latter permeable to extracellular calcium and induces muscle contraction. Consequently, the measurement of inhibition of the contractile response to depolarization by potassium or the measurement of relaxation of the tonic contraction on potassium depolarization can provide an evaluation of the potency of a compound as an inhibitor of the membrane permeability to Ca^++ ions. The technique used is the following: The aorta is removed from male Wistar rats weighing about 300 g and cut into strips approximately 40 mm long and 3 mm wide. These fragments are placed in a 25 ml isolated organ bath containing modified Krebs-bicarbonate solution (112 mM NaCL; 5 mM KCl; 25 mM NaHCO3; 1 mM KH2 PO4; 1.2 mM MgSO4; 2.5 mM CaCl2; 11.5 mM glucose, made up to 1000 ml with distilled water) maintained at 37° C. and through which a stream of carbon dioxide is passed. The preparation is connected to a force microsensor and the contractile response is recorded after amplification on a recorder. A tension of 2g is applied to the preparation. This latter is maintained in the modified Krebs-bicarbonate solution for 60 minutes, and then contractions are induced by replacing the Krebsbi-carbonate solution by a Krebs-potassium solution (17 mM NaCl; 100 mM KCl; 25 mM NaHCO3; 1 mM KH2 PO4; 1.2 mM MgSO4; 2.5 mM CaCl2; 11.5 mM glucose; made up to 1000 ml with distilled water). When the contractile response of the preparation has become reproducible, a given amount of the compound of the invention is introduced into the bath. Sixty minutes later a new spasm is induced by potassium depolarization. The results obtained on the aorta under investigation are then expressed in percent of the maximal contractional effect before incubation with the test substance. As examples, the following results were obtained, the compounds of formula (1) being in the form of the free base, the hydrochloride, oxalate or fumarate.

[2] = test system: increase in blood pressure induced by epinephrine (anti-α effect); experiment: Anti-α effect: reduction of epinephrine-induced increase in blood pressure in anesthetized atropinized dog; format: in vivo; parameters: key: +: for a reduction <50%; ++: for a reduction ≥50%; +++: for an almost complete reduction
Protocol: The aim of this test is to determine the capacity of the compounds of the invention to reduce the increase in blood pressure induced by epinephrine (anti-αeffect) and the acceleration of the heart rate induced by isoprenaline (anti-βeffect) in the dog previously anesthetized with pentobarbital and atropinized. First, are determined for each dog the dose of epinephrine (between 3 and 10 μg/kg) which causes a reproducible increase in arterial blood pressure of about 133.10^2 Pa and the dose of isoprenaline (1 to 2 μg/kg) which causes a reproducible increase in the heart rate of about 70 beats/minute. The doses of epinephrine and isoprenaline thus determined are injected alternatively every ten minutes and after the two consecutive reference responses have been obtained, a quantity of the test compound is administered by the intravenous route. The percentage reduction of the hypertension caused by the test compound in comparison with the reference hypertension previously obtained (about 100 mm Hg) is recorded. In both cases, the results of the reduction in arterial pressure and heart rate are expressed as follows: […]

COc1ccc2[nH]c(C)c(Sc3ccc(OCCCN(C)CCc4ccc(OC)c(OC)c4)cc3)c2c1 [Ex. 9, 3-{4-[3-(N-methyl N-3,4-dimethoxy-β-phenethylamino)propoxy]phenylthio} 5-methoxy 2-methyl indole hydrogen oxalate]
% maximal contractional effect ([1]; 10^-7 M, 0.1 µM): 70,4% | % maximal contractional effect ([1]; 10^-8 M, 0.01 µM): 84,4% | % maximal contractional effect ([1]; 10^-9 M, 0.001 µM): 88%

COc1ccc(CCN(C)CCCOc2ccc([S+]([O-])c3c(C(C)C)c4cc(Cl)ccc4n3C)cc2)cc1OC (stereo not drawn) [Ex. 56, (5-chloro 3-isopropyl 1-methylindo-2yl)4-[3-(N-methyl N-3,4-dimethoxy-β-phenethylamino)propoxy]phenyl sulfoxide hydrogen oxalate]
Anti-α effect ([2]; intravenous, 0,67 mg/kg): +++ | % maximal contractional effect ([1]; 10^-7 M, 0.1 µM): 19,8% | % maximal contractional effect ([1]; 10^-8 M, 0.01 µM): 61,3% | % maximal contractional effect ([1]; 10^-9 M, 0.001 µM): 78,6%

COc1ccc(CCNCCCOc2ccc(S(=O)(=O)c3c(C(C)C)c(C)n4ccccc34)cc2)cc1OC [Ex. 14, 2-isopropyl 3-methyl 1-{4-[3-(N-3,4-dimethoxy-β-phenethylamino)propoxy]benzenesulfonyl}indolizine hydrogen oxalate]
Anti-α effect ([2]; intravenous, 0,12 mg/kg): +++

CCCCN(CCCC)CCCOc1ccc(S(=O)(=O)c2c(C(C)C)c3cc(OC)ccc3n2C)cc1.O=C(O)C(=O)O [Ex. 64, 2-{4-[3-(di-n-butylamino)propoxy]benzenesulfonyl} 3-isopropyl 5-methoxy 1-methyl indole hydrogen oxalate]
Anti-α effect ([2]; intravenous, 0,5 mg/kg): +++ | % maximal contractional effect ([1]; 10^-7 M, 0.1 µM): 69,3% | % maximal contractional effect ([1]; 10^-8 M, 0.01 µM): 72,6% | % maximal contractional effect ([1]; 10^-9 M, 0.001 µM): 93,9%

CCCCc1oc2ccc(NS(C)(=O)=O)cc2c1S(=O)(=O)c1ccc(OCCCN(C)CCc2ccc(OC)c(OC)c2)cc1 [Ex. 4, 3-{4-[3-(N-methyl N-3,4-dimethoxy-β-phenethylamino)propoxy]benzenesulfonyl} 2-n-butyl 5-methane sulfonamido benzofuran hydrogen oxalate]
% maximal contractional effect ([1]; 10^-6 M, 1 µM): 49,9% | % maximal contractional effect ([1]; 10^-7 M, 0.1 µM): 92,7%

COc1ccc(CCN(C)CCCOc2ccc(S(=O)(=O)c3c(C(C)C)c4cc(Cl)ccc4n3C)cc2)cc1OC [Ex. 59, 2-{4-[3-(N-methyl N-3,4-dimethoxy-β-phenethylamino)propoxy]benzenesulfonyl} 5-chloro 3-isopropyl 1-methyl indole]
% maximal contractional effect ([1]; 10^-7 M, 0.1 µM): 41,4% | % maximal contractional effect ([1]; 10^-8 M, 0.01 µM): 55,4% | % maximal contractional effect ([1]; 10^-9 M, 0.001 µM): 68,4% | % maximal contractional effect ([1]; 10^-10 M, 0.0001 µM): 81,5%

CCCCc1oc2ccc(N)cc2c1S(=O)(=O)c1ccc(OCCCN(C)CCc2ccc(OC)c(OC)c2)cc1 [Ex. 3, 5-amino 3-{4-[3-(N-methyl N-3,4-dimethoxy-β-phenethylamino)propoxy]benzenesulfonyl} 2-n-butyl benzofuran dihydrochloride]
Anti-α effect ([2]; intravenous, 1,31 mg/kg): +++

COc1ccc(CCN(C)CCCOc2ccc(S(=O)(=O)c3c(C(C)C)n(C)c4ccc(Cl)cc34)cc2)cc1OC [Ex. 13, 3-{4-[3-(N-methyl N-3,4-dimethoxy-β-phenethylamino)propoxy]benzenesulfonyl} 5-chloro 2-isopropyl 1-methylindole]
Anti-α effect ([2]; intravenous, 0,6 mg/kg): +++ | % maximal contractional effect ([1]; 10^-7 M, 0.1 µM): 35,5% | % maximal contractional effect ([1]; 10^-8 M, 0.01 µM): 79,2%

COc1cc(OC)c(C(C)C)c(S(=O)(=O)c2ccc(OCCCN(C)CCc3ccc(OC)c(OC)c3)cc2)c1.O=C(O)C(=O)O [Ex.6, 4-[-3(N-methyl N-3,4-dimethoxy-β-phenethylamino)propox]phenyl (2-isopropyl 3,5-dimethoxy phenyl) sulfone oxalate]
% maximal contractional effect ([1]; 10^-7 M, 0.1 µM): 13,1% | % maximal contractional effect ([1]; 10^-8 M, 0.01 µM): 63,4% | % maximal contractional effect ([1]; 10^-9 M, 0.001 µM): 85,7%

CCc1nn2cccc(C)c2c1S(=O)(=O)c1ccc(OCCCN(C)CCc2ccc(OC)c(OC)c2)cc1 [Ex. 78, 3-{4-[3-(N-methyl N-3,4-dimethoxy-β-phenethylamino)propoxy]benezenesulfonyl} 2-ethyl 4-methyl pyrazolo[1,5-a]pyridine hydrogen oxalate]
% maximal contractional effect ([1]; 10^-8 M, 0.01 µM): 17,5% | % maximal contractional effect ([1]; 10^-9 M, 0.001 µM): 72,9% | % maximal contractional effect ([1]; 10^-10 M, 0.0001 µM): 78,6%

COc1ccc2c(c1)c(C(C)C)c(S(=O)(=O)c1ccc(OCCCN(C)CCc3ccc(OC)c(OC)c3)cc1)n2CCCN(C)CCc1ccc(OC)c(OC)c1 [Ex. 63, 2-{4-[3-(N-methyl N-3,4-dimethoxy-β-phenethylamino)propoxy]benzenesulfonyl} 1-[3-(N-methyl N-3,4-dimethoxy-β-phenethylamino)propyl] 3-isopropyl 5-methoxy indole oxalate]
% maximal contractional effect ([1]; 10^-7 M, 0.1 µM): 69,7% | % maximal contractional effect ([1]; 10^-8 M, 0.01 µM): 82,8% | % maximal contractional effect ([1]; 10^-9 M, 0.001 µM): 90,8%

CCc1nn2cc(C)ccc2c1S(=O)(=O)c1ccc(OCCCN(C)CCc2ccc(OC)c(OC)c2)cc1 [Ex. 81, 3-{4-[3-(N-methyl N-3,4-dimethoxy-β-phenethylamino)propoxy]benzenesulfonyl} 2-ethyl 6-methyl pyrazolo[1,5-a]pyridine hydrogen oxalate]
% maximal contractional effect ([1]; 10^-8 M, 0.01 µM): 78,1% | % maximal contractional effect ([1]; 10^-9 M, 0.001 µM): 85,3% | % maximal contractional effect ([1]; 10^-10 M, 0.0001 µM): 91,4%

COc1ccc(CCN(C)CCCOc2ccc([S+]([O-])c3c(C(C)C)c4cccc(C)c4n3C)cc2)cc1OC (stereo not drawn) [Ex. 57, (3-isopropyl 1,7-dimethylindol-2-yl)4-[3-(N-methyl N-3,4-dimethoxy-β-phenethylamino)propoxy]phenyl sulfoxide hydrogen oxalate]
% maximal contractional effect ([1]; 10^-7 M, 0.1 µM): 56,9% | % maximal contractional effect ([1]; 10^-8 M, 0.01 µM): 76,4% | % maximal contractional effect ([1]; 10^-9 M, 0.001 µM): 89,9%

CCCCc1oc2ccc(Cl)cc2c1S(=O)(=O)c1cc(Br)c(OCCCN(C)CCc2ccc(OC)c(OC)c2)c(Br)c1 [Ex. 7, 5-chloro 2-n-butyl 3-{4-[3-(N-methyl N-3,4-dimethoxy-β-phenethylamino)propoxy] 3,5-dibromobenzenesulfonyl}benzofuran hydrogen oxalate]
% maximal contractional effect ([1]; 10^-6 M, 1 µM): 80,3% | % maximal contractional effect ([1]; 10^-7 M, 0.1 µM): 76,8%

Cc1nn2cccc(C)c2c1S(=O)(=O)c1ccc(OCCCN(C)C2CCCc3ccccc32)cc1 (stereo not shown) [Ex. 51, 3-{4-[3-(N-methyl N-1,2,3,4-tetrahydronapth-1-ylamino)propoxy]benzenesulfonyl} 2,4-dimethyl pyrazolo[1,5-a]pyridine hydrogen oxalate]
% maximal contractional effect ([1]; 10^-8 M, 0.01 µM): 67,1% | % maximal contractional effect ([1]; 10^-9 M, 0.001 µM): 85%

COc1ccc(CCN(C)CCCOc2ccc(S(=O)(=O)c3c(C(C)C)n(C)c4cc(C)ccc34)cc2)cc1OC [Ex. 45, 1-methyl 2-isopropyl 3-{4-[3-(N-methyl N-3,4-dimethoxy-β-phenethylamino)propoxy]benzenesulfony} 6-methyl indole hydrogen oxalate]
% maximal contractional effect ([1]; 10^-7 M, 0.1 µM): 15,7% | % maximal contractional effect ([1]; 10^-8 M, 0.01 µM): 75,2% | % maximal contractional effect ([1]; 10^-9 M, 0.001 µM): 83,2%

CCCCN(CCCC)CCCOc1ccc(S(=O)(=O)c2c(C)nn3c(C)cccc23)cc1 [Ex. 48, 3-{4-[3-(di-n-butylamino)propoxy]benzenesulfonyl} 2,7 dimethyl pyrazolo[1,5-]pyridine hydrogen oxalate]
% maximal contractional effect ([1]; 10^-8 M, 0.01 µM): 77,1% | % maximal contractional effect ([1]; 10^-9 M, 0.001 µM): 85,7%

CCCCN(CCCC)CCCOc1ccc(S(=O)(=O)c2c(C(C)C)n(C)c3cc(C)ccc23)cc1.O=C(O)C(=O)O [Ex. 46, 1-methyl 2-isopropyl 3-{4-[3-(di-n-butylamino)propoxy]benzenesulfonyl} 6-methyl indole hydrogen oxalate]
% maximal contractional effect ([1]; 10^-7 M, 0.1 µM): 41,7% | % maximal contractional effect ([1]; 10^-8 M, 0.01 µM): 67,2% | % maximal contractional effect ([1]; 10^-9 M, 0.001 µM): 79,5%

CCN(CC)CCn1c(C(C)C)c(S(=O)(=O)c2ccc(OCCCN(C)CCc3ccc(OC)c(OC)c3)cc2)c2ccccc21 [Ex. 12, 3-{4-[3-(N-methyl N-3,4-dimethoxy-β-phenethylamino)propoxy]benzenesulfonyl} 1-diethylaminoethyl 2-isopropyl indole dioxalate]
% maximal contractional effect ([1]; 10^-7 M, 0.1 µM): 74,9% | % maximal contractional effect ([1]; 10^-8 M, 0.01 µM): 84,5% | % maximal contractional effect ([1]; 10^-9 M, 0.001 µM): 90,4%
